One cell line from the supplement of paper PMC10307832 can be followed below.

What all share (assay): relative viability (nuclei count vs DMSO), 5 days (fraction); higher = more cells survive
Compound in the assay “AT-7519 + Alpelisib”: O=C(NC1CCNCC1)c1n[nH]cc1NC(=O)c1c(Cl)cccc1Cl [AT-7519] + Cc1nc(NC(=O)N2CCC[C@H]2C(N)=O)sc1-c1ccnc(C(C)(C)C(F)(F)F)c1 [Alpelisib] (partner 2 µM)
The essentials:
(§1)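 Relative viability equals treated-well nuclei counts divided by vehicle-well nuclei counts. Counts came from 4× images of lung cancer cell lines grown in 1536-well plates for 5 days after pin-tool dosing on the day after seeding. Dosing used one drug alone or a fixed anchor-drug dose plus five library-drug doses (not always all listed) in √10 steps, and values are medians of duplicate plates.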

Compound in the assay “AT-7519 + Crizotinib”: O=C(NC1CCNCC1)c1n[nH]cc1NC(=O)c1c(Cl)cccc1Cl [AT-7519] + C[C@@H](Oc1cc(-c2cnn(C3CCNCC3)c2)cnc1N)c1c(Cl)ccc(F)c1Cl [Crizotinib] (partner 1 µM)
The essentials:
as §1

Compound in assay [1]: C1=CC2=C(C=C(C(=C2N=C1)O)N=NC3=CC4=C(C=C3)C=C(C=C4)S(=O)(=O)O)S(=O)(=O)O + Nc1ncn([C@H]2C[C@H](O)[C@@H](CO)O2)c(=O)n1 [Decitabine] (partner 2 µM)
An outline of the steps:
as §1

Compound in assay [2]: C1=CC2=C(C=C(C(=C2N=C1)O)N=NC3=CC4=C(C=C3)C=C(C=C4)S(=O)(=O)O)S(=O)(=O)O + CC(=O)Nc1cccc(-n2c(=O)n(C3CC3)c(=O)c3c(Nc4ccc(I)cc4F)n(C)c(=O)c(C)c32)c1 [Trametinib] (partner 0.02 µM)
An outline of the steps: as §1

In the case of UMC-11, the relative viability with AT-7519 + Alpelisib (first compound 0.01 µM) worked out at 0.841; with AT-7519 + Alpelisib (first compound 0.03162 µM) it was 0.94; in the assay with AT-7519 + Alpelisib (first compound 0.3162 µM) it was 0.587; in the assay with AT-7519 + Alpelisib (first compound 1 µM), 0.35; with AT-7519 + Crizotinib (first compound 0.01 µM), 0.677; with AT-7519 + Crizotinib (first compound 0.03162 µM), 0.539. Moreover, the relative viability with AT-7519 + Crizotinib (first compound 0.3162 µM) came to 0.302; with AT-7519 + Crizotinib (first compound 1 µM), 0.13; in assay [1] (first compound 0.08 µM), 0.506; in assay [1] (first compound 0.253 µM) it was 0.644; in assay [1] (first compound 0.8 µM), 0.734; in assay [1] (first compound 2.53 µM), 0.679. The relative viability was found to be 0.638 in assay [1] (first compound 8 µM); 0.74 in assay [2] (first compound 0.08 µM); 0.777 in assay [2] (first compound 0.253 µM); 0.658 in assay [2] (first compound 0.8 µM); 0.728 in assay [2] (first compound 2.53 µM); 0.766 in assay [2] (first compound 8 µM).
